Test: In vivo pharmacokinetic investigation, plasma FITC-HPBCD after i.v. administration
Set-up: species or system BALB/c male mice
Settings: for CL: clearance = terminal ke × Vd1; for CL / ke (1–15 min) / t1/2 (1–15 min) / t1/2 (15–30 min) / t1/2 (30–60 min) / ke (15–30 min) / t1/2 (15–45 min) / t1/2 (45–60 min) / ke (15–45 min) / kc (1–15 min) / ke (30–60 min) / ke (45–60 min) / Vd: dose 250 µg; for ke (1–15 min): elimination rate constant; for ke (1–15 min) / ke (15–30 min) / ke (15–45 min) / kc (1–15 min) / ke (30–60 min) / ke (45–60 min): in min-1 (unit assumed); for t1/2 (1–15 min) / t1/2 (15–30 min) / t1/2 (30–60 min) / t1/2 (15–45 min) / t1/2 (45–60 min): in min; for Vd at 1 min of sampling: n = 6; for kc (1–15 min): rate constant of compartmentalization; for ke (30–60 min) / ke (45–60 min): terminal phase; for Vd: volume of distribution at 1 min
Method: Twelve BALB/c male mice (23–25 g) were involved in the study. 0.25 mg FITC-HPBCD, dissolved in 0.2 mL saline solution was injected into the lateral tail vein of each mouse. Blood samples were collected from the orbital sinus from six mice after 1, 15, 30 and 60 min and at 1, 15, 45 and 60 min from other six mice by the same sampling method. Blood samples were incubated for 1 h at 37 °C and centrifuged for 8 min at 1700 rpm to separate blood plasma. Aliquots of plasma from the samples were placed into black 96-well plates and their fluorescence intensities were measured by a FLUOstar Optima microplate reader (BMG LABTECH, Offenburg, Germany; 492 nm excitation and 520 nm emission wavelengths) and the plasma FITC-HPBCD concentrations were calculated.
The two compartment model was characterized by the following equations:(3) Ct=C^′×e^−kc×t+C^″×e^−ke×t (4) C0=C^′+C^″ where ke is the elimination rate constant of FITC-HPBCD determined from data of the terminal phase (ke(30-60 min) or ke(45-60 min)); t1/2 is the half-life of FITC-HPBCD calculated from the corresponding ke values; CL is the clearance of FITC-HPBCD; Vd is the volume of distribution of FITC-HPBCD determined from data related to the first minute (Vd1); Ct is the plasma concentration of FITC-HPBCD at “t”; C′ and C″ are the two components of the initial plasma concentration of FITC-HPBCD representing the amount of FITC-HPBCD that will be compartmentalized and eliminated, respectively.

[1] = mice, i.v., Group F, sampling 1, 15, 30 and 60 min
[2] = mice, i.v., Group F, sampling 1, 15, 45 and 60 min
[3] = mice, i.v., Group NF, sampling 1, 15, 30 and 60 min
[4] = mice, i.v., Group NF, sampling 1, 15, 45 and 60 min

6-deoxy-6-[(5/6)-fluoresceinylthioureido]-(2-hydroxypropyl)-β-cyclodextrin [FITC-HPBCD]
CL [1]: 0.11 ± 0.15 mL/min | CL [2]: 0.23 ± 0.08 mL/min | CL [3]: 0.25 ± 0.15 mL/min | CL [4]: 0.69 ± 0.38 mL/min | ke (1–15 min) [1]: 0.092 ± 0.023 | ke (1–15 min) [2]: 0.095 ± 0.017 | ke (1–15 min) [3]: 0.115 ± 0.017 | ke (1–15 min) [4]: 0.107 ± 0.006 | Vd at the first minute, average (mice, i.v., all animals n = 12): 5.7 ± 1.34 mL | t1/2 (1–15 min) (mice, i.v., Group F (followed two-compartment model), sampling 1, 15, 30 and 60 min): 7.82 ± 1.48 | t1/2 (15–30 min) [1]: 7.54 ± 0.52 | t1/2 (30–60 min) [1]: 122.3 ± 109.4 | ke (15–30 min) [1]: 0.092 ± 0.007 | t1/2 (1–15 min) [2]: 7.5 ± 1.13 | t1/2 (15–45 min) [2]: 13.55 ± 1.45 | t1/2 (45–60 min) [2]: 20.06 ± 3.89 | ke (15–45 min) [2]: 0.052 ± 0.007 | t1/2 (1–15 min) (mice, i.v., Group NF (did not follow model), sampling 1, 15, 30 and 60 min): 6.13 ± 0.78 | t1/2 (15–30 min) [3]: 35.01 ± 10.15 | t1/2 (30–60 min) [3]: 16.61 ± 7.12 | ke (15–30 min) [3]: 0.022 ± 0.009 | t1/2 (1–15 min) [4]: 6.50 ± 0.31 | t1/2 (15–45 min) [4]: 13.36 ± 3.05 | t1/2 (45–60 min) [4]: 8.99 ± 4.54 | ke (15–45 min) [4]: 0.054 ± 0.013 | Vd at 1 min of sampling (mice, i.v., group following the model): 5.55 ± 0.98 mL | Vd at 1 min of sampling (mice, i.v., group not following the model): 5.85 ± 1.72 mL | i.v. administered FITC-HPBCD eliminated from mice within 60 min (mouse, in vivo, iv): 96.58 ± 2.6% | kc (1–15 min) [1]: 0.109 ± 0.026 | kc (1–15 min) [2]: 0.142 ± 0.033 | ke (30–60 min) [1]: 0.022 ± 0.029 | ke (45–60 min) [2]: 0.036 ± 0.008 | ke (30–60 min) [3]: 0.049 ± 0.020 | ke (45–60 min) [4]: 0.095 ± 0.044 | Vd [1]: 4.86 ± 0.21 mL | Vd [2]: 6.25 ± 0.77 mL | Vd [3]: 4.70 ± 1.27 mL | Vd [4]: 7.01 ± 0.81 mL

Source: article PMC6843445, “Pharmacokinetic Properties of Fluorescently Labelled Hydroxypropyl-Beta-Cyclodextrin” (Biomolecules, 2019)
